Measurements from patent US20170121344A1 (Siga Technologies, Inc., priority 2009, published 2017).
Where two headings read alike, the source gives them in different places.

How the values were obtained:
[1] = test system: Dengue-2 (Strain New Guinea C); test: Viral yield assay against Dengue-2 in Vero cells; type: cell-based, Dengue virus; settings: Dengue virus, Vero cells
Outline: (§1)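 Progeny virus from compound-treated Vero monolayers infected at an MOI of 0.1 is collected after 48 h at 37° C and titered on Vero cells. DMSO serves as control.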

four serotypes of dengue = test: Yield assays against each of the four serotypes of dengue; type: cell-based, Dengue virus; settings: all four serotypes
Procedure: Initially, the chemical structures of the hit compounds were examined for chemical tractability. […] Hits that passed this medicinal chemistry filter were evaluated for their potency. Compound potency was determined by evaluating inhibitory activity across a broad range of concentrations. Nonlinear regression was used to generate best-fit inhibition curves and to calculate the 50% effective concentration (EC50). The selectivity or specificity of a given compound is typically expressed as a ratio of its cytotoxicity to its biological effect. A cell proliferation assay is used to calculate a 50% cytotoxicity concentration (CC50); the ratio of this value to the EC50 is referred to as the therapeutic index (T.I.=CC50/EC50). Two types of assays have been used to determine cytotoxicity, both of which are standard methods for quantitating the reductase activity produced in metabolically active cells (22). […] Verification that these compounds act against each of the four serotypes of dengue was done with yield assays carried out at several drug concentrations, and the titer determined for each.
Compounds that were active in the primary screen were tested for activity in viral yield assays. […] The EC50 was calculated through ExcelFit. Activities against other serotypes of dengue virus were determined in a similar way.

dengue [2] = settings: mouse model; cited from earlier work
dengue [3] = settings: cited from earlier work
DENV-1 = test: Viral yield assay against DENV-1 in Vero cells; type: cell-based; settings: Dengue virus, DENV1, viral yield assay
Outline: as §1

DENV-3 = test: Viral yield assay against DENV-3 in Vero cells; type: cell-based; settings: Dengue virus, DENV3, viral yield assay
Outline: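 Yield reduction, Vero; MOI 0.1; compound vs DMSO; 37° C; harvest 48 h p.i.; titer on Vero; EC50 fitted. Other serotypes run the same way.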

DENV-4 = test: Viral yield assay against DENV-4 in Vero cells; type: cell-based; settings: Dengue virus, DENV4, viral yield assay
Outline: as §1

[4] = DENV2, viral yield assay, MOI 0.1, 48 hours post infection, read-out: Activity (EC50 in μM) DENV-2

Row | Structure (SMILES) | EC50 ([1]; MOI 0.1, harvested 48 hours post infection, read-out: Activity (EC50 class) against Dengue-2 Virus in Vero cells) | Activity against serotypes of dengue (four serotypes of dengue) | Protection against dengue (dengue [2]) | Adverse effects induced (dengue [3]; animal model, literature) | Protection against dengue (dengue [3]; rhesus monkey model) | EC50 [1, 4] | EC50 (DENV-1) | EC50 (DENV-3) | EC50 (DENV-4)
1 | Nc1c(C(=O)Nc2nnc(-c3ccccc3)s2)sc2nc3c(cc12)CCCCC3 [Compound 1, 3-Amino-6,7,8,9-tetrahydro-5H-1-thia-10-aza-cyclohepta[f]indene-2-carboxylic acid (5-phenyl-[1,3,4]thiadiazol-2-yl)-amide] | < 5 µM | activity against all four serotypes of dengue |  |  |  |  |  |  | 
2 | NC(=O)c1ncn([C@@H]2O[C@H](CO)[C@@H](O)[C@H]2O)n1 [ribavirin, Ribavirin] |  |  | did not show protection | induced anemia and thrombocytosis | did not show protection |  |  |  | 
3 | N#Cc1c(O)nc2sc(C(=O)Nc3ccc(Br)cc3)c(N)c2c1-c1ccco1 [Compound 325, 3-amino-N-(4-bromophenyl)-5-cyano-4-(2-furyl)-6-hydroxy-thieno[2,3-b]pyridine-2-carboxamide] |  |  |  |  |  | < 5 µM | < 5 µM | < 5 µM | < 5 µM
4 | COc1ccc(-c2ccc3c(N)c(C(=O)Nc4ccc(C(F)(F)F)cc4)sc3n2)cc1 [Compound 492, 3-amino-6-(4-methoxyphenyl)-N-[4-(trifluoromethyl)phenyl]thieno[2,3-b] pyridine-2-carboxamide] |  |  |  |  |  | < 5 µM | < 5 µM | < 5 µM | < 5 µM
5 | Nc1c(C(=O)Nc2ccc(OC(F)F)cc2)sc2nc(-c3ccc(Cl)cc3)ccc12 [Compound 340, 3-amino-6-(4-chlorophenyl)-N-[4-(difluoro-methoxy)phe-nyl]thieno[2,3-b]pyridine-2-carboxamide] |  |  |  |  |  | < 5 µM | < 5 µM | < 5 µM | < 5 µM
6 | O=C1CCC(=O)N(c2cccc(C(F)(F)F)c2)C(=O)c2sc3nc(-c4cccs4)ccc3c2N1 [Compound 306, 2-(thiophen-2-yl)-10-(3-(trifluoromethyl)phenyl)-7,8-dihydro-5H-pyrido[3′,2′:4,5]thieno[3,2-b][1,5]diazonine-6,9,11(10H)-trione] |  |  |  |  |  | < 5 µM | < 5 µM | < 5 µM | < 5 µM
7 | COc1ccc(-c2ccc3c(N)c(C(=O)Nc4ccccc4Br)sc3n2)cc1 [Compound 468, 3-amino-N-(2-bromophenyl)-6-(4-methoxyphenyl)thieno[2,3-b]pyridine-2-carboxamide] |  |  |  |  |  | < 5 µM | < 5 µM | < 5 µM | < 5 µM
8 | COc1cccc(-c2ccc3c(N)c(C(=O)Nc4ccc(OC)cc4C)sc3n2)c1 [Compound 507, 3-amino-N-(4-methoxy-2-methyl-phenyl)-6-(3-methoxyphenyl)thieno[2,3-b] pyridine-2-carboxamide] |  |  |  |  |  | < 5 µM | < 5 µM | < 5 µM | < 5 µM
9 | Nc1c(C(=O)Nc2ccc(F)cc2)sc2nc(-c3ccc(Cl)cc3)ccc12 [Compound 646, 3-amino-6-(4-chlorophenyl)-N-(4-fluorophenyl)thieno[2,3-b]pyridine-2-carboxamide] |  |  |  |  |  | < 5 µM | < 5 µM | < 5 µM | < 5 µM
10 | Nc1c(C(=O)Nc2ccc(C(F)F)cc2)sc2nc(-c3ccc(Cl)cc3)ccc12 [Compound 337, 3-amino-6-(4-chlorophenyl)-N-[4-(difluoromethyl)phenyl]thieno[2,3-b]pyridine-2-carboxamide] |  |  |  |  |  | < 5 µM | < 5 µM | < 5 µM | < 5 µM
11 | Nc1c(C(=O)Nc2ccc(OC(F)(F)F)cc2)sc2nc3c(cc12)CCCCC3 [Compound 369, 3-amino-N-(4-(trifluroomethoxy)phenyl)-6,7,8,9-tetrahydro-5H-cyclohepta[b]thieno [3,2-e]pyridine-2-carboxamide] |  |  |  |  |  | < 5 µM | 5 to 25 µM | < 5 µM | < 5 µM
12 | Nc1c(C(=O)Nc2cccc(Cl)c2Cl)sc2nc(-c3cccs3)ccc12 [Compound 434, 3-amino-N-(2,3-dichlorophenyl)-6-(2-thienyl)thieno[2,3-b]pyridine-2-carboxamide] |  |  |  |  |  | < 5 µM | < 5 µM | < 5 µM | < 5 µM
13 | Nc1c(C(=O)Nc2ccc(F)cc2F)sc2nc(-c3cccs3)ccc12 [Compound 471, 3-amino-N-(2,4-difluorophenyl)-6-(2-thienyl)thieno[2,3-b]pyridine-2-carboxamide] |  |  |  |  |  | < 5 µM | < 5 µM | < 5 µM | < 5 µM
14 | CC(=O)c1ccc(NC(=O)c2sc3nc(-c4cccs4)ccc3c2N)cc1 [Compound 429, N-(4-acetylphenyl)-3-amino-6-(2-thienyl)thieno[2,3-b]pyridine-2-carboxamide] |  |  |  |  |  | < 5 µM | < 5 µM | < 5 µM | < 5 µM
15 | COc1ccc(-c2ccc3c(N)c(C(=O)Nc4cc(Cl)ccc4Cl)sc3n2)cc1OC [Compound 575, 3-amino-N-(2,5-dichlorophenyl)-6-(3,4-dimethoxyphenyl)thieno[2,3-b]pyridine-2-carboxamide] |  |  |  |  |  | < 5 µM | < 5 µM | < 5 µM | < 5 µM
16 | Nc1c(C(=O)Nc2ccc(F)c(F)c2)sc2nc(-c3cccs3)ccc12 [Compound 461, 3-amino-N-(3,4-difluorophenyl)-6-(2-thienyl)thieno[2,3-b]pyridine-2-carboxamide] |  |  |  |  |  | < 5 µM | < 5 µM | < 5 µM | < 5 µM
